Legend:
Test in all cases: NCI 60 cell-line test
Type in all cases: cell-based, human
A498 = A498 (Renal Cancer)
Experimental: (§1) Methodology: The NCI conducted a test of the MT103 drug against 60 human cell lines, with a minimum of five concentrations of MT103 at 10-fold dilutions. A 48 hour continuous drug exposure was used, and a sulforhodamine B (SRB) protein assay was used to estimate cell viability and growth. The human tumor cell lines of the cancer screening panel were grown in RPMI 1640 medium containing 5% fetal bovine serum and 2 mM L-glutamine. Cells were inoculated into 96 well microtiter plates in 100 μL at plating densities ranging from 5,000 to 40,000 cells/well depending on the doubling time of individual cell lines. After cell inoculation, the microtiter plates are incubated at 37° C., 5% CO2, 95% air, and 100% relative humidity for 24 h prior to addition of experimental drugs.
(§2) After 24 h, two plates of each cell line were fixed in situ with TCA, to represent a measurement of the cell population for each cell line at the time of drug addition (Tz). MT103 was solubilized in dimethyl sulfoxide at 400-fold the desired final maximum test concentration and stored frozen prior to use. At the time of drug addition, an aliquot of frozen concentrate was thawed and diluted to twice the desired final maximum test concentration with complete medium containing 50 μg/ml gentamicin. Additional four, 10-fold or ½ log serial dilutions were made to provide a total of five drug concentrations plus control. Aliquots of 100 μl of these different drug dilutions were added to the appropriate microtiter wells already containing 100 μl of medium, resulting in the required final drug concentrations.
(§3) Following drug addition, the plates were incubated for an additional 48 h at 37° C., 5% CO2, 95% air, and 100% relative humidity. For adherent cells, the assay was terminated by the addition of cold TCA. Cells were fixed in situ by the gentle addition of 50 μl of cold 50% (w/v) TCA (final concentration, 10% TCA) and incubated for 60 minutes at 4° C. The supernatant was discarded, and the plates were washed five times with tap water and air dried. Sulforhodamine B (SRB) solution (100 μl) at 0.4% (w/v) in 1% acetic acid was added to each well, and plates were incubated for 10 minutes at room temperature. After staining, unbound dye was removed by washing five times with 1% acetic acid and the plates were air-dried. Bound stain was subsequently solubilized with 10 mM trizma base, and the absorbance was read on an automated plate reader at a wavelength of 515 nm. For suspension cells, the methodology was the same except that the assay was terminated by fixing settled cells at the bottom of the wells by gently adding 50 μl of 80% TCA (final concentration, 16% TCA). Using the seven absorbance measurements (time zero, (Tz), control growth, (C), and test growth in the presence of drug at the five concentration levels (Ti)), the percentage growth was calculated at each of the drug concentrations levels. Percentage growth inhibition was calculated as:
(§4) [(Ti-Tz)/(C-Tz)]×100 for concentrations for which Ti>/=Tz
(§5) [(Ti-Tz)/Tz]×100 for concentrations for which Ti<Tz.
(§6) Three dose response parameters were calculated for each experimental agent. Growth inhibition of 50% (GI50) was calculated from [(Ti-Tz)/(C-Tz)]×100=50, which is the drug concentration resulting in a 50% reduction in the net protein increase (as measured by SRB staining) in control cells during the drug incubation. The drug concentration resulting in total growth inhibition (TGI) was calculated from Ti=Tz. The LC50 (concentration of drug resulting in a 50% reduction in the measured protein at the end of the drug treatment as compared to that at the beginning) indicating a net loss of cells following treatment was calculated from [(Ti-Tz)/Tz]×100=−50. Values were calculated for each of these three parameters if the level of activity is reached; however, if the effect was not reached or was exceeded, the value for that parameter was expressed as greater or less than the maximum or minimum concentration tested.

CAKI-1 = CAKI-1 (Renal Cancer)
Experimental: as §1, §2, §3, §4, §5, §6

HCT-15 = HCT-15 (Colon Cancer)
Experimental: as §1, §2, §3, §4, §5, §6

HOP-62 = HOP-62 (Non-Small Cell Lung Cancer)
Experimental: as §1, §2, §3, §4, §5, §6

HS 578T = HS 578T (Breast Cancer)
Experimental: as §1, §2, §3, §4, §5, §6

LOX IMVI = LOX IMVI (Melanoma)
Experimental: as §1, §2, §3, §4, §5, §6

MDA-MB-435 = MDA-MB-435 (Breast Cancer)
Experimental: as §1, §2, §3, §4, §5, §6

MOLT-4 = MOLT-4 (Leukemia)
Experimental: as §1, §2, §3, §4, §5, §6

NCI-H23 = NCI-H23 (Non-Small Cell Lung Cancer)
Experimental: as §1, §2, §3, §4, §5, §6

NCI-H460 = NCI-H460 (Non-Small Cell Lung Cancer)
Experimental: as §1, §2, §3, §4, §5, §6

OVCAR-3 = OVCAR-3 (Ovarian Cancer)
Experimental: as §1, §2, §3, §4, §5, §6

RPMI-8226 = RPMI-8226 (Leukemia)
Experimental: as §1, §2, §3, §4, §5, §6

SF-539 = SF-539 (CNS Cancer)
Experimental: as §1, §2, §3, §4, §5, §6

SK-MEL-5 = SK-MEL-5 (Melanoma)
Experimental: as §1, §2, §3, §4, §5, §6

SR = SR (Leukemia)
Experimental: as §1, §2, §3, §4, §5, §6

[1] = read-out: LC50 (the source's name)

## CC1(C)C2CC[C@@]1(CS(=O)(=O)N(C1CCCCC1)C1CCCCC1)C(O)C2 (some centres unmarked) [MT103]
A498
  TGI: 9.07E−05
A498; read-out: G150
  IC50: 30.4 µM
A498; [1]
  CC50: > 100 µM
CAKI-1
  TGI: 9.05E−05
CAKI-1; read-out: G150
  IC50: 23.5 µM
CAKI-1; [1]
  CC50: > 100 µM
HCT-15
  TGI: >1.00E−04
HCT-15; read-out: G150
  IC50: 25.7 µM
HCT-15; [1]
  CC50: > 100 µM
HOP-62
  TGI: >1.00E−04
HOP-62; read-out: G150
  IC50: 57.5 µM
HOP-62; [1]
  CC50: > 100 µM
HS 578T
  TGI: >1.00E−04
HS 578T; read-out: G150
  IC50: 29 µM
HS 578T; [1]
  CC50: > 100 µM
LOX IMVI
  TGI: 3.95E−05
LOX IMVI; read-out: G150
  IC50: 19 µM
LOX IMVI; [1]
  CC50: 82.3 µM
MDA-MB-435
  TGI: 9.88E−05
MDA-MB-435; read-out: G150
  IC50: 28.4 µM
MDA-MB-435; [1]
  CC50: > 100 µM
MOLT-4
  TGI: >1.00E−04
MOLT-4; read-out: G150
  IC50: 20.6 µM
MOLT-4; [1]
  CC50: > 100 µM
NCI-H23; read-out: G150
  IC50: 26.9 µM
NCI-H23; [1]
  CC50: > 100 µM
NCI-H460
  TGI: >1.00E−04
NCI-H460; read-out: G150
  IC50: 30.9 µM
NCI-H460; [1]
  CC50: > 100 µM
OVCAR-3
  TGI: 6.30E−05
OVCAR-3; read-out: G150
  IC50: 23 µM
OVCAR-3; [1]
  CC50: > 100 µM
RPMI-8226
  TGI: 3.68E−05
RPMI-8226; read-out: G150
  IC50: 11.8 µM
RPMI-8226; [1]
  CC50: > 100 µM
SF-539
  TGI: >1.00E−04
SF-539; read-out: G150
  IC50: 54.6 µM
SF-539; [1]
  CC50: > 100 µM
SK-MEL-5
  TGI: 3.61E−05
SK-MEL-5; read-out: G150
  IC50: 16.8 µM
SK-MEL-5; [1]
  CC50: 77.7 µM
SR
  TGI: >1.00E−04
SR; read-out: G150
  IC50: 23.8 µM
SR; [1]
  CC50: > 100 µM

Reference: patent publication US20040266732A1, “Therapeutic agents, methods, and treatments” (priority 2002, published 2004)
